Values joined by “and” are separate entries in the source; they are usually repeats but may differ in a detail not shown here. Identical values can stand only once.
Assays:
control rats = experiment: Plasma AVP and apelin-IR levels in control rats (RIA); format: in vivo, rat; set-up: Apelin / AVP: unit not given here
Method: (§1) 187 Apelin radioimmunoassay
189 until use for apelin RIA.
The supernatants were collected and
The samples were dried and dissolved in
201 centrifuged (17000 x g, 4°C, 20 min). The supernatant (4 ml) was collected, and mixed with
The columns were then treated as described in
Samples (0.1ml) w ere mixed with 125I-
(§2) 212 used this radioligand instead of [Glp65, Nle75, Tyr77] [125I]-apelin13 since the substitution of
(§3) 214 derivatives as described previously by 3,4.
216 incubated for 10 min at room temperature.
This antiserum identified the apelin present in the
Most of the apelin in human plasma was
252 TechMedILL platfor m (Illkirch) reviewed and approved by the agriculture ministry regulating
256 Male Sprague-Dawley rats were killed by decapitation, and trunk blood was collected on ice
257 (into 50 µl of 0.3M EDTA (pH 7.4) per 1 ml of blood). Samples were centrifuged (2,600 x g,
258 4°C, 20 min), and the resulting plasma was split into 500 µl aliquots, to which we added 168
259 µl of 3N HCl before storage at -80°C. The AVP RIA was performed as previously described
260 5, using a specific AVP-[Arg8] antibody (final dilution, 1/4.5) and [125I]-(Tyr2Arg8)-AVP
261 (2200 Ci/mmol, Perkin-Elmer, Billerica, MA; 15000 dpm) as a tracer. […]

in vivo = conditions: for Apelin (plasma apelin-immunoreactive level): single animals
Method: as §1
188 Plasma samples (0.5 ml) were acidified with 0.175 ml of 3 mol/l HCl and stored at -80°C
189 until use for apelin RIA. Before thawing the sample on ice, 0.05% BSA was added, and the
190 samples were centrifuged at 20000 x g at 4°C for 10 min. The supernatants were collected and
191 the pH was adjusted to 6.5 with 10 mol/l NaOH and 2 mol/l Tris-HCl buffer (pH 7.4). Apelin
192 was extracted from plasma by mixing the supernatant with 0.3 ml of 0.1% BSA in H2O and 1
193 ml of 1% trifluoroacetic acid (TFA) - 0.1% BSA, and running the mixture on a Sep-Pak C18
194 cartridge (Waters) previously washed with 2 ml 100% acetonitrile and equilibrated with 5 ml
195 1% TFA - 0.1% BSA. The columns then were washed with 3 ml 1% TFA - 0.1% BSA and
196 apelin was eluted with 1.5 ml 100% acetonitrile. […]
208 Plasma or brain apelin levels w ere deter mined by RIA. Samples (0.1ml) w ere mixed with 125I-
211 dilution: 1/4500) to give a total volume of 0.2 ml and were incubated at 4°C overnight. We
as §2, §3
215 We then added 0.5 ml of Amerlex (Amersham RPN 510), and the resulting mixture was
216 incubated for 10 min at room temperature. The tubes were centrifuged at 2600 x g at 4°C for
217 20 min. The supernatant was removed and the radioactivity of the precipitates was measured.
218 We assessed the cross-reactivity of the apelin antiserum with various N- and C-terminally
232 according to the following equation: [plasma apelin] tx = [plasma apelin] t0 * e(-kt) , where k is
233 the elimination rate constant. […]

For `CSCC[C@H](NC(=O)[C@@H]1CCCN1C(=O)CNC(=O)[C@H](CCCCN)NC(=O)[C@H](Cc1c[nH]cn1)NC(=O)[C@H](CO)NC(=O)[C@H](CC(C)C)NC(=O)[C@H](CCCNC(=N)N)NC(=O)[C@@H]1CCCN1C(=O)[C@H](CCCNC(=N)N)NC(=O)[C@H](CCC(N)=O)NC(=O)[C@H](CCCNC(=N)N)NC(=O)[C@H](CCCNC(=N)N)NC(=O)[C@H](Cc1ccccc1)NC(=O)[C@H](CCCCN)NC(=O)CCC(F)(F)C(F)(F)C(F)(F)C(F)(F)C(F)(F)C(F)(F)C(F)(F)C(F)(F)F)C(=O)N1CCC[C@H]1C(=O)N[C@@H](Cc1ccccc1)C(=O)O` [LIT01-196], the “plasma apelin-IR levels, higher than in control rats” value (control rats; 3 h after 900 nmol/kg s.c.) was 185%, the “plasma apelin/AVP ratio, higher than in control rats” value (control rats; 3 h after 900 nmol/kg s.c.) was 105% and the “plasma AVP levels, higher than in animals receiving saline” value (control rats; 3 h after s.c., tolvaptan 6700 nmol/kg, LIT01-196 900 nmol/kg) was 37%. For the same compound, the AVP (control rats; plasma AVP, LIT01-196 900 nmol/kg SC, individual animals (Fig. S4F source data)) was 22.8083 and 24.884 and 19.0278 and 19.6598 and 20.1271 and 24.6505 and 19.9264, the Apelin (control rats; plasma apelin-IR, LIT01-196 900 nmol/kg SC, individual animals (Fig. S4E source data)) was 1622 and 1536 and 1658 and 938 and 943 and 1033 and 1679 and the apelinAVPratio (control rats; plasma apelin/AVP ratio, LIT01-196 900 nmol/kg SC, individual animals (Fig. S4G source data)) was 71.1145 and 61.7264 and 87.1356 and 47.7116 and 46.8522 and 41.9059 and 84.2603. For the same compound, the plasma apelin levels (in vivo; Sprague-Dawley rats, 30 min after s.c. 900 nmol/kg, basal 0.36 ± 0.05, n = 5) was 1.3 ± 0.22 pmol/mL, the “in vivo half-life in the blood circulation, i.v.” value (in vivo; alert rats, 15 nmol/kg i.v., RIA) was 0.467 h and the “in vivo half-life in the blood circulation, s.c.” value (in vivo; alert rats, 900 nmol/kg s.c., RIA) was 2.6 h. The “Apelin (plasma apelin-immunoreactive level)” value (in vivo; rats, 15 nmol/kg IV, time 5 min) was 3.535 and 7.0448, the “Apelin (plasma apelin-immunoreactive level)” value (in vivo; rats, 15 nmol/kg IV, time 7.5 min) was 6.127 and 4.75 and 3.783 and the “Apelin (plasma apelin-immunoreactive level)” value (in vivo; rats, 15 nmol/kg IV, time 10 min) was 3.32 and 4.264. For the same compound, the “Apelin (plasma apelin-immunoreactive level)” value (in vivo; rats, 15 nmol/kg IV, time 15 min) was 3.56 and 2.876 and 2.207, the “Apelin (plasma apelin-immunoreactive level)” value (in vivo; rats, 15 nmol/kg IV, time 60 min) was 1.212 and 1.2225 and the “Apelin (plasma apelin-immunoreactive level)” value (in vivo; rats, 900 nmol/kg SC, time 60 min) was 3.999 and 3.58. The “Apelin (plasma apelin-immunoreactive level)” value (in vivo; rats, 900 nmol/kg SC, time 120 min) was 2.002 and 1.919 and 1.949, the “Apelin (plasma apelin-immunoreactive level)” value (in vivo; rats, 900 nmol/kg SC, time 270 min) was 1.1931 and 0.8899 and 1.066 and the “Apelin (plasma apelin-immunoreactive level)” value (in vivo; rats, 900 nmol/kg SC, time 360 min) was 1.029 and 0.9091 and 0.7789. The “Apelin (plasma apelin-immunoreactive level)” value (in vivo; rats, 900 nmol/kg SC, time 1440 min) was 0.4742 and 0.5151 and 0.6469 and the “plasma apelin levels, times higher than basal levels” value (in vivo; rats, 30 min after s.c. 900 nmol/kg) was 3.6 times.

From PMC7804859, “A metabolically stable apelin-17 analog decreases AVP-induced antidiuresis and improves hyponatremia” (Nature Communications, 2021)
